Where a name gives a salt, the structure may show the parent alone.
Legend:
[1] = target: T1, glycogen synthase kinase-3 β (GSK-3β) (Homo sapiens, UniProt P49841); experiment: Z′-LYTE FRET peptide biochemical kinase assay, ATP at Km, concentration-dependent
T1 construct: gene GSK3B

[2] = target: T2, aurora kinase A (Homo sapiens, UniProt O14965); experiment: as above
T2 construct: gene AURKA
T2 sequence (O14965 1-403): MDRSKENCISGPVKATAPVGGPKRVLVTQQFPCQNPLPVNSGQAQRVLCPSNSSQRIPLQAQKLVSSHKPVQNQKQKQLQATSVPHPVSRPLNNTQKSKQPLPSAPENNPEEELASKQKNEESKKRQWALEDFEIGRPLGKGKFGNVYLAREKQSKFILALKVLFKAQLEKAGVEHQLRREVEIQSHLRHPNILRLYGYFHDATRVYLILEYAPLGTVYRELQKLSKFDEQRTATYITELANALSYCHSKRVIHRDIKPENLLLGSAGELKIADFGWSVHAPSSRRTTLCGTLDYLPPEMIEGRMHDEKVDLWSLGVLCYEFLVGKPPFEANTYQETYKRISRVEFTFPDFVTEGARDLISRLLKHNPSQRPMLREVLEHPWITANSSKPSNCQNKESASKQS

T1 sequence (P49841 whole entry): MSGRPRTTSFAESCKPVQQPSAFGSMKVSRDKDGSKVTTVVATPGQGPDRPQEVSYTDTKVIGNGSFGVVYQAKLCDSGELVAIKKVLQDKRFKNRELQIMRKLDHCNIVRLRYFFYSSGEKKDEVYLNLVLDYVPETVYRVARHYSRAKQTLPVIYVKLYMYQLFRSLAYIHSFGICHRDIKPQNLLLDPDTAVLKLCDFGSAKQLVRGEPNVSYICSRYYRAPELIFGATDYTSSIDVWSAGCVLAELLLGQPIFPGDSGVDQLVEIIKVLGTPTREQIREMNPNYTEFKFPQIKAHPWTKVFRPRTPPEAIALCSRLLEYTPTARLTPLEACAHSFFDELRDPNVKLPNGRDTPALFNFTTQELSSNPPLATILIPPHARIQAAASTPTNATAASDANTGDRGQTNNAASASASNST

SMILES: NCCO/N=C1/C(=C2/C(=O)Nc3ccc([N+](=O)[O-])cc32)Nc2ccc(O)cc21 [LDD-1819, (2Z,3E)-3-((2-aminoethoxy)imino)-5-hydroxy-5′-nitro-[2,3′-biindolinylidene]-2′-one hydrochloride]
- IC50 [1]: 5.46 nM
- IC50 [2]: 222 nM

From publication PMC6717215, “Chemical characterization and biological activity data for a novel indirubin derivative, LDD-1819” (Data in Brief, 2019)
